Data as given in patent US10253028B2, “Pyrazolo[3,4-D]pyrimidin derivative and its use for the treatment of leishmaniasis” (GlaxoSmithKline Intellectual Property Development Limited, priority 2015, dated 2019).

Tests used:
[1] = system: THP-1 cells; assay: Intramacrophage Leishmania donovani assay, cytotoxicity readout (THP-1 cell count); assay type: cell-based; conditions: 72 h incubation with compound; for EC50: Homo sapiens, THP-1, 72 h, read-out: pEC50 value against THP-1 cells (converted)
Protocol: (§1) Intra macrophage Leishmania donovani assay
(§2) The intramacrophage Leishmania assay was performed exactly as described in de Rycker et al (Antimicrob Agents Chemother. 2013 July; 57(7):2913-22. doi: 10.1128/AAC.02398-12. Epub 2013 Apr. 9. Comparison of a high-throughput high-content intracellular Leishmania donovani assay with an axenic amastigote assay. De Rycker M, Hallyburton I, Thomas J, Campbell L, Wyllie S, Joshi D, Cameron S, Gilbert I H, Wyatt P G, Frearson J A, Fairlamb A H, Gray D W.). Briefly, 1 μl of compound was pre-dispensed into 384 well sterile intermediary plates. For single point screening, amphotericin B was added to all wells of column 24 as a positive control (final concentration 2 μM) and DMSO to column 23. For potency determinations, ten-point, one in three dilution curves were created with the highest concentration being 50 μM and on each plate a control curve of amphotericin B was included. Controls were as follows: columns 11 and 12: DMSO, columns 23 and 24: amphotericin B (final concentration 2 μM). To the intermediary plates, 100 μl of THP-1 media was added and plates were shaken for >5 min to ensure complete mixing. THP-1 cells (8,000 per well, 50 μl) were plated into black clear-bottom 384 well plates (Corning) in presence of 10 nM PMA. After 20 min at RT, the plates were incubated at 37° C. under 5% CO2 in a humidified incubator for 75 h. The cells were then washed with 450 μl sterile phosphate buffered saline (PBS) supplemented with 1 mM CaCl2, 0.5 mM MgCl2, 0.1% (w/v) bovine serum albumin (PBS-A) and amastigotes were added to all wells at a multiplicity of infection of 5 (40,000 amastigotes per well). After 40 min at RT, plates were returned to the incubator. Amastigotes were incubated in the presence of macrophages for 16 h. […] For each well, i) THP-1 cell count (cytotoxicity readout) and ii) average number of amastigotes per cell (potency readout) were calculated, both in terms of pEC50 values.

[2] = system: Leishmania donovani amastigotes; assay: Intramacrophage Leishmania donovani assay, potency readout (average number of amastigotes per cell); assay type: cell-based; conditions: THP-1, 72 h, amastigotes in PMA-differentiated THP-1 macrophages, 72 h incubation with compound, read-out: pEC50 value against amastigotes (converted)
Protocol: as §1
as §2, with “mixing.” for “mixing. THP-1 cells (8,000 per well, 50 μl) were plated into black clear-bottom 384 well plates (Corning) in presence of 10 nM PMA. After 20 min at RT, the plates were incubated at 37° C. under 5% CO2 in a humidified incubator for 75 h. The cells were then washed with 450 μl sterile phosphate buffered saline (PBS) supplemented with 1 mM CaCl2, 0.5 mM MgCl2, 0.1% (w/v) bovine serum albumin (PBS-A) and amastigotes were added to all wells at a multiplicity of infection of 5 (40,000 amastigotes per well). After 40 min at RT, plates were returned to the incubator. Amastigotes were incubated in the presence of macrophages for 16 h.”

| EC50 [2] [µM] | Compound | pEC50 value against THP-1 cells [1] | EC50 [1] [µM] |
| --- | --- | --- | --- |
| – | C[C@H]1CN(c2n[nH]c3nc(NC4CCC(NS(=O)(=O)CCC(F)(F)F)CC4)ncc23)CCO1 (single isomer, unassigned) [Formula (I)] | 4.3 | ≥ 39.8 |
| ≤ 5.01 | C[C@@H]1CN(c2n[nH]c3nc(NC4CCC(NS(=O)(=O)CCC(F)(F)F)CC4)ncc23)CCO1 (single isomer, unassigned) [opposite enantiomer] | – | ≥ 39.8 |
